{"source": "ChEMBL document CHEMBL4715817", "about": "“Python Cathelicidin CATHPb1 Protects against Multidrug-Resistant Staphylococcal Infections by Antimicrobial-Immunomodulatory Duality” (J Med Chem, 2018)", "key": {"[1]": {"system": "Mus musculus", "assay": "Immunomodulatory activity in Kunming mouse infected with vancomycin-resistant Staphylococcus aureus assessed as effect number of neutrophil in peritoneal cavity at 10 mg/kg, ip measured upto 24 hrs by flow cytometry", "format": "functional, organism-based", "conditions": "time hrs <=24"}, "[2]": {"system": "Candida albicans", "assay": "Antimicrobial activity against Candida albicans IS 08022821 incubated for 16 to 18 hrs by fluorescence microplate reader analysis", "format": "functional", "conditions": "time 16-18 hrs"}, "[3]": {"system": "Stenotrophomonas maltophilia", "assay": "Antimicrobial activity against Stenotrophomonas maltophilia IS 090223 incubated for 16 to 18 hrs by fluorescence microplate reader analysis", "format": "functional", "conditions": "time 16-18 hrs"}, "[4]": {"system": "Mus musculus", "assay": "Immunomodulatory activity in Kunming mouse infected with vancomycin-resistant Staphylococcus aureus assessed as increased in MCP-1 level in peritoneal lavage at 10 mg/kg, ip administered 24 hrs before infection by ELISA", "format": "functional, organism-based"}, "[5]": {"system": "Mus musculus", "assay": "Immunomodulatory activity in Kunming mouse infected with vancomycin-resistant Staphylococcus aureus assessed as increased in IL-10 level in peritoneal lavage at 10 mg/kg, ip administered 24 hrs before infection by ELISA", "format": "functional, organism-based"}, "[6]": {"system": "Candida albicans", "assay": "Antibiofilm activity against Candida albicans assessed as biofilm eradication at BIC-5 by XTT and crystal violet staining assay relative to control", "format": "functional"}, "[7]": {"system": "Neutrophil", "assay": "Immunomodulatory activity in neutrophils (unknown origin) assessed as inhibition of LPS-induced CXCL1/KC level at 5 to 20 ug/ml by ELISA", "format": "functional, cell-based", "conditions": "dose 5-20 µg/ml"}, "[8]": {"system": "Mus musculus", "assay": "Immunomodulatory activity in Kunming mouse infected with vancomycin-resistant Staphylococcus aureus assessed as decreased in IL-1beta level in peritoneal lavage at 10 mg/kg, ip administered 4 hrs after infection by ELISA", "format": "functional, organism-based"}, "[9]": {"system": "Mus musculus", "assay": "Immunomodulatory activity in Kunming mouse infected with vancomycin-resistant Staphylococcus aureus assessed as effect number of inflammatory macrophages in peritoneal cavity at 10 mg/kg, ip measured upto 24 hrs by flow cytometry", "format": "functional, organism-based", "conditions": "time hrs <=24"}, "[10]": {"system": "Mus musculus", "assay": "Immunomodulatory activity in Kunming mouse infected with vancomycin-resistant Staphylococcus aureus assessed as decreased in IL-6 level in peritoneal lavage at 10 mg/kg, ip administered 4 hrs after infection by ELISA", "format": "functional, organism-based"}, "[11]": {"assay": "Induction of neutrophil extracellular trap formation in neutrophil (unknown origin) at 20 ug/ml measured after 3 hrs by fluorescence analysis", "format": "functional", "conditions": "dose 20 µg/ml"}, "[12]": {"system": "Staphylococcus aureus", "assay": "Antimicrobial activity against methicillin sensitive Staphylococcus aureus ATCC 25923 incubated for 16 to 18 hrs by fluorescence microplate reader analysis", "format": "functional", "conditions": "time 16-18 hrs"}, "[13]": {"assay": "Toxicity in Kunming mouse assessed as effect on IL-1beta levels at 10 mg/kg, ip measured after 5 hrs by ELISA", "format": "organism-based", "conditions": "in vivo"}, "[14]": {"system": "Mus musculus", "assay": "Immunomodulatory activity in Kunming mouse infected with vancomycin-resistant Staphylococcus aureus assessed as increased in MCP-1 level in peritoneal lavage at 10 mg/kg, ip administered 4 hrs after infection by ELISA", "format": "functional, organism-based"}, "[15]": {"system": "Mus musculus", "assay": "Immunomodulatory activity in Kunming mouse infected with vancomycin-resistant Staphylococcus aureus assessed as decreased in IL-6 level in peritoneal lavage at 10 mg/kg, ip administered 24 hrs before infection by ELISA", "format": "functional, organism-based"}, "[16]": {"system": "Candida albicans", "assay": "Antimicrobial activity against Candida albicans IS 08022710 incubated for 16 to 18 hrs by fluorescence microplate reader analysis", "format": "functional", "conditions": "time 16-18 hrs"}, "[17]": {"system": "Staphylococcus epidermidis", "assay": "Antimicrobial activity against Staphylococcus epidermidis IS 08032706 incubated for 16 to 18 hrs by fluorescence microplate reader analysis", "format": "functional", "conditions": "time 16-18 hrs"}, "[18]": {"system": "Staphylococcus aureus", "assay": "In vivo antibacterial activity against vancomycin resistant Staphylococcus aureus infected in kunming mouse assessed as reduction in bacterial load in peritoneum at 10 mg/kg, sc measured 18 hrs after infection", "format": "functional, organism-based"}, "[19]": {"molecular_target": "Mitogen-activated protein kinase 1 and 3 (ERK2 and ERK1) (Mus musculus) (UniProt P63085+Q63844)", "sequence (P63085 whole entry, looked up)": "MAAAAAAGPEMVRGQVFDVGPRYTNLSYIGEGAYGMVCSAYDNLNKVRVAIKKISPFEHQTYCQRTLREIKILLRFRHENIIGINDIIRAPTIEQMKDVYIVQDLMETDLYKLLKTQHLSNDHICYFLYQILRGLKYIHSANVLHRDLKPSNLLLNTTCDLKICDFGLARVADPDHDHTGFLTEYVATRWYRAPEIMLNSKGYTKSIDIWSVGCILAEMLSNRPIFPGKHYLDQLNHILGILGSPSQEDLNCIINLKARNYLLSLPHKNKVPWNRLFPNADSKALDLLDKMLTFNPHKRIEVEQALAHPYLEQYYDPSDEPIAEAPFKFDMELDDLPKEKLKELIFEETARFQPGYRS", "sequence (Q63844 whole entry, looked up)": "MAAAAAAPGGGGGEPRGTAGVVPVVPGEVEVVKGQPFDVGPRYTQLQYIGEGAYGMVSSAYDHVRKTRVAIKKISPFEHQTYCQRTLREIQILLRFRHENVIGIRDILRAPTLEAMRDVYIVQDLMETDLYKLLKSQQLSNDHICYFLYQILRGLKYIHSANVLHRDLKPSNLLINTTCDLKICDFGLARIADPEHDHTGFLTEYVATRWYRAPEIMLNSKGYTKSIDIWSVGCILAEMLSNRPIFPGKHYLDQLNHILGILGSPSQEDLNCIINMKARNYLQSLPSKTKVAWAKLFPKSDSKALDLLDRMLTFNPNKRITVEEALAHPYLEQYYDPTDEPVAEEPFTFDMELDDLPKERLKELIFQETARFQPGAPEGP", "assay": "Inhibition of LPS-induced phosphorylation of Erk1/2 in mouse peritoneal macrophage at 20 ug/ml pretreated for 1 hr followed by LPS stimulation measured after 30 mins by Western blot analysis relative to control", "format": "tissue-based", "conditions": "dose 20.0 µg/ml, time 1.5 hrs"}, "[20]": {"assay": "Toxicity in Kunming mouse assessed as effect on MIP-2 levels at 10 mg/kg, ip measured after 5 hrs by ELISA", "format": "organism-based", "conditions": "in vivo"}, "[21]": {"assay": "Toxicity in Kunming mouse assessed as effect on MCP-1 levels at 10 mg/kg, ip measured after 5 hrs by ELISA", "format": "organism-based", "conditions": "in vivo"}, "[22]": {"assay": "Immunomodulatory activity in mouse peritoneal macrophage assessed as increase in MCP-1 mRNA level at 20 ug/ml measured after 6 hrs by qRT-PCR analysis relative to control", "format": "functional", "conditions": "dose 20 µg/ml"}, "[23]": {"system": "Staphylococcus aureus", "assay": "Antimicrobial activity against Staphylococcus aureus IS 08032706 incubated for 16 to 18 hrs by fluorescence microplate reader analysis", "format": "functional", "conditions": "time 16-18 hrs"}, "[24]": {"system": "Macrophage", "assay": "Immunomodulatory activity in mouse peritoneal macrophage assessed as inhibition of LPS-induced IL-6 level measured after 24 hrs by ELISA", "format": "functional", "conditions": "dose 5-20 µg/ml"}, "[25]": {"system": "Nakaseomyces glabratus", "assay": "Antibiofilm activity against Candida glabrata assessed as biofilm eradication at BIC-5 by XTT and crystal violet staining assay relative to control", "format": "functional"}, "[26]": {"system": "Neutrophil", "assay": "Immunomodulatory activity in neutrophils (unknown origin) assessed as inhibition of LPS-induced TNF-alpha level at 5 to 20 ug/ml by ELISA", "format": "functional, cell-based", "conditions": "dose 5-20 µg/ml"}, "[27]": {"system": "Mus musculus", "assay": "Immunomodulatory activity in mouse assessed as increase number of inflammatory monocytes in peritoneal cavity at 10 mg/kg, ip measured after 5 to 24 hrs by flow cytometry", "format": "functional, organism-based", "conditions": "time 5-24 hrs"}, "[28]": {"system": "Staphylococcus aureus", "assay": "Antibacterial activity against vancomycin-resistant Staphylococcus aureus assessed as bacterial growth inhibition in presence of 80% human serum incubated upto 8 hrs", "format": "functional", "conditions": "time hrs <=8"}, "[29]": {"system": "Mus musculus", "assay": "Immunomodulatory activity in mouse assessed as increase […] of MCP-1 in peritoneal cavity at 10 mg/kg, ip measured after 5 to 24 hrs by ELISA", "format": "functional, organism-based", "conditions": "time 5-24 hrs"}, "[30]": {"system": "Mus musculus", "assay": "Immunomodulatory activity in Kunming mouse infected with vancomycin-resistant Staphylococcus aureus assessed as increased in CXCL1/KC level in peritoneal lavage at 10 mg/kg, ip administered 24 hrs before infection by ELISA", "format": "functional, organism-based"}, "[31]": {"system": "Staphylococcus aureus", "assay": "In vivo antibacterial activity against vancomycin resistant Staphylococcus aureus infected in kunming mouse assessed as reduction in bacterial load in spleen at 10 mg/kg, ip administered 4 hrs after infection", "format": "functional, organism-based"}, "[32]": {"system": "Klebsiella pneumoniae", "assay": "Antimicrobial activity against Klebsiella pneumoniae IS 08B343 incubated for 16 to 18 hrs by fluorescence microplate reader analysis", "format": "functional", "conditions": "time 16-18 hrs"}, "[33]": {"system": "Candida albicans", "assay": "Antimicrobial activity against Candida albicans IS 08030102 incubated for 16 to 18 hrs by fluorescence microplate reader analysis", "format": "functional", "conditions": "time 16-18 hrs"}, "[34]": {"system": "Bacillus cereus", "assay": "Antimicrobial activity against Bacillus cereus incubated for 16 to 18 hrs by fluorescence microplate reader analysis", "format": "functional", "conditions": "time 16-18 hrs"}, "[35]": {"system": "Staphylococcus aureus", "assay": "Antimicrobial activity against vancomycin resistant Staphylococcus aureus IS 08032810, incubated for 16 to 18 hrs by fluorescence microplate reader analysis", "format": "functional", "conditions": "time 16-18 hrs"}, "[36]": {"system": "Staphylococcus aureus", "assay": "In vivo antibacterial activity against methicillin resistant Staphylococcus aureus IS 08032712 infected in kunming mouse assessed as increase in survival rate at 10 mg/kg, ip administered 4 hrs after infection and measured up to 7 days after infection", "format": "functional, organism-based", "conditions": "time day <=7"}, "[37]": {"system": "Neutrophil", "assay": "Immunomodulatory activity in neutrophils (unknown origin) assessed as effect on TNF-alpha level at 20 ug/ml measured after 12 hrs by ELISA", "format": "functional, cell-based", "conditions": "dose 20.0 µg/ml"}}, "note": "Active and inactive are the calls of the source. The calls are words filed in the database; no cut-off is given here. Peptide text beside a SMILES is read from it."}
{"smiles": "CC[C@H](C)[C@H](NC(=O)[C@@H]1CCCN1C(=O)[C@@H](NC(=O)[C@@H](NC(=O)CNC(=O)CNC(=O)[C@@H](NC(=O)[C@H](Cc1ccccc1)NC(=O)[C@@H](NC(=O)[C@H](CCCCN)NC(=O)[C@@H](NC(=O)[C@H](CCCCN)NC(=O)[C@H](CCCCN)NC(=O)[C@H](Cc1ccccc1)NC(=O)[C@@H](NC(=O)[C@H](CCCCN)NC(=O)[C@H](CCCNC(=N)N)NC(=O)[C@H](Cc1ccccc1)NC(=O)CNC(=O)[C@H](CCCCN)NC(=O)[C@H](CCCCN)NC(=O)[C@@H](NC(=O)[C@H](CCCCN)NC(=O)[C@H](CCCNC(=N)N)NC(=O)[C@H](Cc1ccccc1)NC(=O)[C@H](Cc1ccccc1)NC(=O)[C@H](CCCCN)NC(=O)[C@H](CCCCN)NC(=O)[C@H](Cc1ccccc1)NC(=O)[C@H](CCCNC(=N)N)NC(=O)[C@@H](N)CCCCN)[C@@H](C)CC)[C@@H](C)CC)[C@@H](C)O)[C@@H](C)CC)[C@@H](C)CC)[C@@H](C)O)[C@@H](C)CC)C(=O)O", "note": "(H-KRFKKFFRKIKKGFRKIFKKTKIFIGGTIPI-OH)", "values": [{"measurement": "Activity", "setting": "[1]", "result": "inactive"}, {"measurement": "MIC", "setting": "[2]", "result": 1.17, "unit": "µg/mL"}, {"measurement": "MIC", "setting": "[3]", "result": 1.17, "unit": "µg/mL"}, {"measurement": "Activity", "setting": "[4]", "result": "Active"}, {"measurement": "Activity", "setting": "[5]", "result": "Active"}, {"measurement": "Activity", "setting": "[6]", "result": 38.69, "unit": "%"}, {"measurement": "inhibition", "setting": "[7]", "result": "inactive"}, {"measurement": "Activity", "setting": "[8]", "result": "Active"}, {"measurement": "Activity", "setting": "[9]", "result": "inactive"}, {"measurement": "Activity", "setting": "[10]", "result": "Active"}, {"measurement": "Activity", "setting": "[11]", "result": 32.53, "unit": "%"}, {"measurement": "MIC", "setting": "[12]", "result": 1.17, "unit": "µg/mL"}, {"measurement": "Activity", "setting": "[13]", "result": "Non-Toxic"}, {"measurement": "Activity", "setting": "[14]", "result": "Active"}, {"measurement": "Activity", "setting": "[15]", "result": "Active"}, {"measurement": "MIC", "setting": "[16]", "result": 1.17, "unit": "µg/mL"}, {"measurement": "MIC", "setting": "[17]", "result": 1.17, "unit": "µg/mL"}, {"measurement": "Activity", "setting": "[18]", "result": "Active"}, {"measurement": "inhibition", "setting": "[19]", "result": 90, "unit": "%"}, {"measurement": "Activity", "setting": "[20]", "result": "Non-Toxic"}, {"measurement": "Activity", "setting": "[21]", "result": "Non-Toxic"}, {"measurement": "fold change (FC)", "setting": "[22]", "result": 13}, {"measurement": "MIC", "setting": "[23]", "result": 1.17, "unit": "µg/mL"}, {"measurement": "inhibition", "setting": "[24]", "result": "Dose-dependent effect"}, {"measurement": "Activity", "setting": "[25]", "result": 37.47, "unit": "%"}, {"measurement": "inhibition", "setting": "[26]", "result": "Active"}, {"measurement": "Activity", "setting": "[27]", "result": "Active"}, {"measurement": "MIC", "setting": "[28]", "result": 25, "unit": "µg/mL"}, {"measurement": "Activity", "setting": "[29]", "result": "Active"}, {"measurement": "Activity", "setting": "[30]", "result": "Active"}, {"measurement": "Activity", "setting": "[31]", "result": "Active"}, {"measurement": "MIC", "setting": "[32]", "result": 1.17, "unit": "µg/mL"}, {"measurement": "MIC", "setting": "[33]", "result": 1.17, "unit": "µg/mL"}, {"measurement": "MIC", "setting": "[34]", "result": 1.17, "unit": "µg/mL"}, {"measurement": "MIC", "setting": "[35]", "result": 1.17, "unit": "µg/mL"}, {"measurement": "Activity", "setting": "[36]", "result": "Active"}, {"measurement": "Activity", "setting": "[37]", "result": "inactive"}]}
